The text below walks through data of publication PMC3006453 (Journal of structural biology, 2010).

“Also recorded” adds a separate entry of the source. Where two headings read alike, the source gives them in different places. Where only a bound is given, the exact number is not on record here.

Test [1] concerns the target T1, AtMTAN1 (Arabidopsis thaliana, UniProt Q9T0I8). Nature of the test: Isothermal titration calorimetry, ligand binding to wild-type AtMTAN1. A general note: ITC needs no label: the signal is the heat of the interaction.
Test [2] deals with T1, AtMTAN1. The settings on record: ref Siu et al., 2008a, cited from earlier work; for hydrolysis of substrates with extended 5′-substituents by AtMTAN1: previous kinetics studies.
The next test concerns the target EcMTAN-Glu174Gln (Escherichia coli, UniProt P0AF12, E174Q). Nature of the test: Isothermal titration calorimetry, ligand binding to EcMTAN-Glu174Gln mutant. The settings on record: for N: ITC stoichiometry; for ΔH / −TΔS: pH 7.5, 25 °C.
A further test deals with AtMTAN1-Glu202Gln (Arabidopsis thaliana, UniProt Q9T0I8, E202Q). Briefly: Isothermal titration calorimetry, ligand binding to AtMTAN1-Glu202Gln mutant.
Test [3] concerns the target T1, AtMTAN1. Nature of the test: Xanthine oxidase-coupled spectrophotometric assay of substrate hydrolysis. It counts as biochemical.
For a further test, the system named is AtMTAN2. The settings on record: ref Siu et al., 2008a; cited from earlier work.
Another test concerns EcMTAN. The note with it: substrate SAH; no reference and method not given.
The mark [4] stands for this setting: ITC stoichiometry, single-binding site model.
Where [5] appears, read: ITC, 50 mM sodium-HEPES pH 7.5, 25 °C, single-binding site model.

In the case of `Nc1ncnc2[nH]cnc12` [ADE, adenine], the dissociation constant (Kd) (usually the free concentration of one partner at which half of the binding sites on the other are occupied at equilibrium, for simple one-to-one binding) on AtMTAN1 [1] amounted to 1.7 ± 0.1 µM. On AtMTAN1 [1] (setting [4]), this molecule returned an N of 0.99 ± 0.003. Further, on AtMTAN1 [1] (ITC, pH 7.5, 25 °C), the ΔH is -10.3 ± 0.5 kcal/mol and the “−TΔS” value was 2.4 kcal/mol.

For the molecule 5′-isobutylthioadenosine, the “hydrolysis of substrates with extended 5′-substituents by AtMTAN1” value on AtMTAN1 [2] was “can hydrolyze”.

Regarding 5′-methylthioadenosine [MTA], the N was found to be 0.94 ± 0.01 at EcMTAN-Glu174Gln (single-binding site model) and 0.97 ± 0.04 on AtMTAN1-Glu202Gln (setting [4]). The Kd is 4.8 ± 0.4 µM at EcMTAN-Glu174Gln (setting [5]) and 94.8 ± 4 µM at AtMTAN1-Glu202Gln (setting [5]). The ΔH at EcMTAN-Glu174Gln (ITC) is -9.6 ± 0.1 kcal/mol; at AtMTAN1-Glu202Gln (ITC, pH 7.5, 25 °C) it was 5.6 ± 0.3 kcal/mol. Moreover, the “−TΔS” value at EcMTAN-Glu174Gln (ITC) is 2.4 kcal/mol; at AtMTAN1-Glu202Gln (ITC, pH 7.5, 25 °C), -11.1 kcal/mol. Besides, at AtMTAN1 [3] (substrate MTA, wild-type AtMTAN1, no reference given), the Km – broadly, the concentration of substrate that gives half-maximal velocity – came to 1.5 ± 0.2 µM.

Regarding 5′-butylthioadenosine, the “hydrolysis of substrates with extended 5′-substituents by AtMTAN1” value at AtMTAN1 [2] is “can hydrolyze”.

For `Nc1ncnc2c1ncn2[C@@H]1O[C@H](CSCC[C@H](N)C(=O)O)[C@@H](O)[C@H]1O` [SAH, S-adenosylhomocysteine], the Kd at EcMTAN-Glu174Gln was 9.3 ± 0.4 µM; on AtMTAN1-Glu202Gln, more than 600 µM; on AtMTAN1-Glu202Gln (setting [5]) it was “No interaction is detected; also recorded: Not detected”. At EcMTAN-Glu174Gln (single-binding site model), this molecule gave an N of 0.94 ± 0.01. Besides, the ΔH at EcMTAN-Glu174Gln (ITC) was -7.9 ± 0.1 kcal/mol. Also, on EcMTAN-Glu174Gln (ITC), the “−TΔS” value worked out at 1.0 kcal/mol. Besides, the “activity towards the substrate” value with AtMTAN2 is 14%. In addition, on AtMTAN1 [3] (kinetics and ITC studies, 10- and 30-min durations), the “catalytic activity (hydrolysis) of AtMTAN1 towards the substrate” value is “does not hydrolyze; also recorded: did not detect catalytic activity”. For the same molecule, the “activity of AtMTAN1 towards the substrate” value at AtMTAN1 [2] is “completely inactive”. For the same molecule, the Km in the test with EcMTAN is 1.3 ± 0.2 µM.
